In patent publication US4302578A, “Cephalosporin antibiotics” (priority 1971, dated 1981):
Entries after “also recorded” stand apart in the source; their conditions may differ. Structures can show the parent of a compound that is named as a salt. Where two headings read alike, the source gives them in different places.

Key:
Proteus morganii 356 [1] = assay: mouse protection test, clinical isolate resistant to cephalosporins; type: in vivo, mice; settings: Subcutaneous Route × 2 Doses (average of Two Trials)
Description: (§1) The method employed in this characterization is as follows: Female white Swiss mice, average weight 20-23 grams, were infected intraperitoneally with 3-20 times the number of organisms calculated to be lethal for 50% of the infected control animals (3-20 LD50 doses). At the time of infection and again six hours later, therapy was given by the designated route. Controls of the virulence of the culture and the toxicity of the antibiotic for uninfected mice were included in the tests. Seven days after infection the test was considered complete and the amount of the antibiotic (I) that would be required to protect 50% of the infected and treated animals was calculated by the method of Knudsen and Curtis; J. Amer. Stat. Assoc. Vol. 42: page 282 (1947).
Administration was by subcutaneous injection. At the completion of the test period, usually seven days after administration, the amount of product required to protect 50% of the mice (ED50) from this otherwise fatal injection was calculated:
In addition to the aforementioned in vivo trails of the product, a clinical isolate of Proteus morganii 356 which is resistant to cephalosporins and capable of degrading cephalosporin C, was employed in a mouse protection test performed in the same manner as reported above.

[2] = tested on: Aerobacter cloacae (MB-2646); assay: bacterial inactivation, cell-free extract; type: biochemical
Experimental: The ability of Antibiotic 810A and cephalosporin C to withstand the degradative effect of the culture Aerobacter cloacae (MB-2646) was also determined. This culture is gram-negative and resistant to cephalosporin C. […] The source of the inactivating substance is a 1:160 dilution of the filtrate of an 18 hour 37° C. shake culture of Aerobacter cloacae MB-2646 in nutrient broth containing 0.2% yeast extract. Table XIV, infra, indicates the percent inactivation of Antibiotic 810A, cephalothin, cephaloridine and cephalosporin C on Vibrio percolans (MB-1272) via this method:
Using the same assay procedure as described above, Table XV, infra, indicates the relative resistance of Antibiotic 810A to enzymatic inactivation by Aerobacter cloacae. The starting concentration is 250 μg./ml. Results are expressed in μg./ml.

[3] = tested on: gram-negative and gram-positive infections; assay: in vivo protection against infection (summary statements); set-up: species or system mice; settings: for protection: 4000 mg. × dose, subcutaneous, infection not marked; for protection against infections, oral: given orally; for in vivo protection / activity: mouse
Description: as §1
The method employed in these studies is the same as described above with regard to the in vivo characterization of 810A.

penicillinase = settings: cited from earlier work
[4] = tested on: gram-negative and gram-positive bacteria; assay: in vitro antibacterial activity (summary statements); type: cell-based
Proteus morganii 251 = assay: bacterial inactivation
Experimental: (§2) These cultures are: Escherichia coli 236, Proteus morganii 251, Proteus morganii 356 and Proteus mirabilis 241. […] In conducting the assay individual mixtures of the organisms and one of the antibiotic were sampled after four hours incubation and assayed for residual antibiotic activity. The procedure is the same assay method as described above against Alcaligenes faecalis MB-9 and A. viscosus MB-12.

Proteus morganii 356 [5] = assay: bacterial inactivation
Experimental: as §2

Proteus mirabilis 241 = assay: bacterial inactivation
Experimental: as §2

Escherichia coli 236 = assay: bacterial inactivation; settings: four hours incubation; on B. subtilis (MB-964); 240 min
Experimental: as §2

[6] = urinary excretion and blood levels; type: in vivo, mice; settings: mouse
certain microorganisms = assay: resistance to bacterial inactivation / enzymatic degradation (summary statements); type: biochemical
Description: Bacterial Inactivation With 810A: An in vitro study was designed to determine the resistance of Antibiotic 810A, to bacterial inactivation as compared with cephalosporin C, cephaloridine and cephalothin.

[7] = tested on: Alcaligenes faecalis (MB-9); assay: bacterial inactivation, washed bacterial cells
[8] = isoelectric point and pH stability; type: physicochemical; settings: for stability, low pH: pH 1.5
[9] = toxicity for uninfected mice; settings: mouse, in vivo
Description: as §1

cephalosporinases = assay: resistance to cephalosporinases / penicillinase; type: biochemical
Vibrio percolans MB-1272 = assay: disc-plate bioassay; settings: for zone of inhibition at 100 µg/mL / zone of inhibition at 5 µg/mL: Comamonas terrigena
[10] = tested on: Salmonella gallinarum MB-1287; assay: disc-plate bioassay of derivatives; type: cell-based; settings: 100γ/ml (Example 77)
Description: (§3) Bioassay: The disc zone sizes in the following table are expressed in mm. for equal concentrations of antibiotic.

[11] = tested on: Pseudomonas stutzeri MB-1231; assay: disc-plate bioassay of derivatives; type: cell-based; settings: Stutzerimonas stutzeri, MB1231, equal concentrations, 100γ/ml (Example 71); read-out: disc zone size
Description: (§4) Bioassay: The disc zone sizes in the following table are expressed in mm. for 100 γ/ml of antibiotic.
as §3

Escherichia coli W-MB-60 = assay: disc-plate bioassay of derivatives; type: cell-based; settings: 100 γ/ml (Example 78)
Description: as §4, §3

[12] = tested on: gram-negative and gram-positive bacteria; settings: cited from earlier work
[13] = 2 Hour Incubation, assayed on V. percolans (MB-1272) plates
[14] = four hours incubation, on B. subtilis (MB-964), 240 min

Compound: CC(=O)OCC1=C(C(=O)O)N2C(=O)[C@@H](NC(=O)Cc3cccs3)[C@H]2SC1 [Cephalothin]
- ED50 (Proteus morganii 356 [1]): 20,000 μg
- Percent Inactivation After Incubation With Cell-Free Extract [2, 13]: 66%
- protection [3]: failed to protect at 4000 mg. × dose

Compound: CC1(C)S[C@@H]2[C@H](NC(=O)Cc3ccccc3)C(=O)N2[C@H]1C(=O)O [Penicillin G]
- resistance to / degradation by penicillinase (penicillinase): in the presence of penicillinase it is degraded to a form which is ineffective against most pathogens

Compound: CO[C@@]1(NC(=O)CCC[C@@H](N)C(=O)O)C(=O)N2C(C(=O)O)=C(COC(N)=O)CS[C@@H]21 [Example 842A]
- antibacterial activity [4]: exhibits activity against Salmonella schottmuelleri 3010, S. gallinarum and S. typhosa
- bactericidal action / development of resistance [4]: resistance to it develops slowly and it is bactericidal
- antibacterial activity ([4]; listed as Antibiotic 842A): inhibits the growth of the following gram-negative bacteria: Escherichia coli, Proteus vulgaris, Alcaligenes faecalis, Brucella bronchiseptica, Salmonella gallinarum, Vibrio percolans and Xanthomonas vesicatoria; also recorded: inhibits the growth of the following gram-positive bacteria: Staphylococcus aureus, Sarcina lutea and Bacillus subtilis; also recorded: enhanced activity against gram-negative microorganisms
- percent inactivation (Proteus morganii 251; bacterial cells, 4 h): 80%
- percent inactivation (Proteus morganii 356 [5]; bacterial cells, 4 h): 69%
- percent inactivation (Proteus mirabilis 241; bacterial cells, 4 h): 5%
- percent inactivation (Escherichia coli 236): 38%
- blood levels / excretion ([6]; in vivo): produces rapid blood levels; also recorded: rapidly excreted in the urine
- dose excreted at 6 h ([6]; urine, within six hours after administration, read-out: eliminated in the urine): ~100%
- resistance to inactivation / enzymatic degradation (certain microorganisms): more resistant to enzymatic degradation than cephalosporin C
- resistance to inactivation / enzymatic degradation (certain microorganisms; listed as Antibiotic 842A): more stable than the latter against certain microorganisms; also recorded: more resistant than cephalosporin C to inactivation by A. faecalis, A. viscosus, Escherichia coli 236, Proteus morganii 251, Proteus morganii 236 and Proteus mirabilis 241
- Percent Inactivation After Incubation With Washed Bacterial Cells ([7]; 4 Hour Incubation, assayed on B. subtilis (MB-964) plates): 0%
- stability, high pH [8]: unstable above pH 7
- stability, high pH ([8]; listed as Antibiotic 842A): unstable above pH 9.0
- stability, low pH [8]: stable at pH 1.5
- stability, low pH ([8]; listed as Antibiotic 842A): relatively stable at pH 1.5
- protection against infections, oral [3]: protects against infections due to Paracolobactrum arizoniae 3270, Proteus vulgaris 1810, and Salmonella schottmuelleri 3010
- in vivo protection / activity ([3]; listed as Antibiotic 842A): protects against infection with three species of Proteus, two of Salmonella, one strain of Escherichia coli, two of Klebsiella and also against Paracolobactrum arizoniae, Aerobacter aerogenes, Pasteurella multocida and Diplococcus pneumoniae E400; also recorded: exhibits a significant in vivo gram-negative effect with a potency which, in general, is greater than cephalothin

Compound: COC(=Cc1ccc(OS(=O)(=O)O)cc1)C(=O)OCC1=C(C(=O)O)N2C(=O)[C@](NC(=O)CCC[C@@H](N)C(=O)O)(OC)[C@H]2SC1 [7β-(D-5-amino-5-carboxyvaleramido)-3-(α-methoxy-p-sulfooxycinnamoyloxymethyl)-7-methoxy-3-cephem-4-carboxylic acid]
- bactericidal action / development of resistance [4]: bactericidal
- toxicity [9]: low order of toxicity in mice
- resistance to cephalosporinases (cephalosporinases): greater resistance to cephalosporinases than cephalothin
- resistance to inactivation / enzymatic degradation (certain microorganisms): more resistant to enzymatic degradation than cephalosporin C
- protection against infections, oral [3]: protects against infections due to Proteus vulgaris
- in vivo protection / activity [3]: when administered subcutaneously, it is effective against a variety of gram-negative and gram-positive infections

Compound: CO[C@@]1(NC(=O)CCC[C@@H](N)C(=O)O)C(=O)N2C(C(=O)O)=C(C)CS[C@@H]21 [7β-(D-5-amino-5-carboxyvaleramido)-3-methyl-7-methoxy-3-cephem-4-carboxylic acid]
- Bioactivity (Vibrio percolans MB-1272; 50 ug/ml): Inactive at 50 ug/ml

Compound: CO[C@@]1(NC(=O)CCC[C@@H](N)C(=O)O)C(=O)N2C(C(=O)O)=C(COC(N)=O)CS[C@@H]21 [Disodium Salt of 842A]
- disc zone size [10]: 27 mm
- zone of inhibition at 100 µg/mL (Vibrio percolans MB-1272; MB1272, read-out: disc zone size, 100γ/ml (Example 77)): > 35 mm
- zone of inhibition at 100 µg/mL (Vibrio percolans MB-1272; MB1272, read-out: disc zone size, 100 γ/ml (Example 78)): 23 mm
- zone of inhibition at 5 µg/mL (Vibrio percolans MB-1272; MB1272, read-out: disc zone size, Example 70, (5γ/ml) printed at end of line, head 100γ/ml): 18 mm
- zone of inhibition at 5 µg/mL (Vibrio percolans MB-1272; MB1272, read-out: disc zone size, equal concentrations, 5γ/ml (Example 71)): 18 mm
- zone of inhibition at 100 µg/mL [11]: 21 mm
- disc zone size (Escherichia coli W-MB-60): 18 mm

Compound: CC(=O)OCC1=C(C(=O)O)N2C(=O)[C@@H](NC(=O)CCC[C@@H](N)C(=O)O)[C@H]2SC1 [Cephalosporin C]
- percent inactivation (Proteus morganii 251; [14]): > 99%
- percent inactivation (Proteus morganii 356 [5]; [14]): > 99%
- percent inactivation (Proteus mirabilis 241; [14]): 72%
- percent inactivation (Escherichia coli 236): > 99%
- antibacterial activity (background, words) [12]: only moderately active
- Percent Inactivation After Incubation With Cell-Free Extract [2, 13]: 96%
- resistance to / degradation by penicillinase (penicillinase): possesses an inherent resistance to penicillinase
- Percent Inactivation After Incubation With Washed Bacterial Cells ([7]; 3 Hour Incubation, assayed on V. percolans (MB-1272) plates): > 99%
- Percent Inactivation After Incubation With Washed Bacterial Cells ([7]; 3 Hours Incubation, assayed on B. subtilis (MB-964) plates): > 99%

Compound: O=C(Cc1cccs1)N[C@@H]1C(=O)N2C(C(=O)[O-])=C(C[n+]3ccccc3)CS[C@H]12 [Cephaloridine]
- ED50 (Proteus morganii 356 [1]): 9,270 μg
- Percent Inactivation After Incubation With Cell-Free Extract ([2]; aerobacter cloacae cell-free extract, 2 h): 96%
- protection [3]: failed to protect at 4000 mg. × dose
